This is an account of results in patent US10583181B2, “Recombinant multiple domain fusion protein mitogens and use thereof for inducing enhancement or repression of antigen-specific immunity” (priority 2008, dated 2020).

Entries after “also recorded” stand apart in the source; their conditions may differ.

Assay [1] concerns B cell (CD19+) and monocyte (CD14+) fractions. The assay can be described thus: Phenotype of CD40L-FasL-IgFc activated cells. Format: cell-based, human. To be noted: cultures stimulated for 5 days.
The test system of assay [2] is PBL-B cells. Nature of the assay: TNP-specific IgG/IgM secretion ELISA. Format: cell-based, human. To be noted: 4 days culture, supernatant ELISA. On the procedure:
(§1) The relative concentrations of TNP-specific human IgG and IgM in supernatants from 4 day cultures were determined by ELISA assays. TNP22-BSA (1 μg/ml) was used to coat assay plates, and alkaline phosphatase-conjugated anti-human IgG (Fab-specific) (Sigma) or anti-human IgM (μ-chain-specific) (Sigma) were used as the detection reagents. The concentration of IL-2 in fusion protein-stimulated culture supernatants was measured by human-IL-2-specific ELISA kit (Roche, Laval, QC, Canada). The lower limit of detection was 30 pg/ml in IL-2 assay.
We next assessed the effect on IgG secretion by fusion protein-induced co-clustering of CD40 and Fas in B cells. PBL-B cells were incubated with CD40L-FasL-IgFc for four days and the supernatants were assayed for IgG- and IgM-specific trinitrophenyl (TNP) hapten [Galanaud et al., Cell. Immunol., 106:234 (1987)].
PBMCs were stimulated with fusion proteins for four days. The relative concentrations of TNP-specific human IgG and IgM in supernatants were determined by ELISA assays. […] The data represent the three experiments with similar results.
(In general: ELISA stands for enzyme-linked immunosorbent assay.)

Assay [3] has as its system human B lymphoma cells (Raji, Daudi). The assay can be described thus: Cell death of human B lymphoma cells after treatment. It is filed as cell-based. To be noted: Raji and Daudi cells.
In assay [4] the test system is PRDI-BF1. Nature of the assay: PRDI-BF1 RNA by RT-PCR. Format: cell-based, human. To be noted: 0.1 μM, 3 days. The protocol:
(§2) Using specific primers, PRDI-BF1 RNA was amplified by RT-PCR (20 cycles) from cytoplasmic RNA derived from PBL cells stimulated for three days with fusion proteins (0.1 μM). T-bet and GATA3 RNAs were amplified by RT-PCR (25 cycles) from cytoplasmic RNA derived from CD4^+ T cells stimulated for five days with fusion proteins (0.1 μM). Each sample was subjected to electrophoresis on agarose gels and stained with ethidium bromide (EtBr) to detect amplified fragments: 594 bp for PRDI-BF1, 206 bp for T-bet and 131 bp for GATA3.
PBMCs were stimulated with fusion proteins (0.1 μM) for three days. The total RNA was assayed for the message of PRDI-BF1 by RT-PCR. Each sample was electrophoresed on agarose gels and stained with ethidium bromide (EtBr) to detect amplified fragments. The data represent the results from three experiments with similar results.

Assay [5] relates to Influenza hemaglutinin. Further details: species or system Balb/c mice. The conditions noted are these: mouse; for HA-specific IgG, secondary response following boost / HA-specific IgG, primary response: in vivo; for HA-specific IgG, primary response: ip.
Assay [6] deals with human PBMCs. The assay can be described thus: Proliferation of human PBMC ([3H]thymidine uptake). It is filed as cell-based. The protocol:
(§3) Human lymphocytes were stimulated for 3 days in 96 U-bottom well plates with various concentrations of recombinant fusion proteins. In some experiments, a NF-κB inhibitor (SN50, 18 μM, Calbiochem, San Diego, Calif., USA) and a MEK1/2 inhibitor (PD98059, 1 μg/ml, Calbiochem) were added to the cell culture media. Cell proliferation was assessed by thymidine uptake assays. Cultured cells were pulsed with 1 μCi/well of [^3H]thymidine (ICN, Costa Mesa, Calif., USA) for 18 hours and then harvested onto glass fiber filters. [^3H]thymidine incorporation was measured by standard liquid scintillation counting techniques. In some experiments, HA antigen-specific cell proliferation response was assayed by the MTT assay [van de Loosdrecht et al., J. Immunol. Methods, 174:311(1994)], which is a direct measure of cell viability.
We cultured human PBMCs and mouse spleen cells in the presence of CD40L-FasL-IgFc. Whole blood, obtained from a healthy donor, was twice diluted with Na-PBS (pH 7.2) and peripheral blood mononuclear cells (PBMCs) were separated by Ficoll density gradients (Ficoll-Paque Plus, Amarsham Biotech) by centrifugation (Sorvall RT 6000, 1500 rpm for 15 minutes at room temperature). The peripheral blood mononuclear cells were collected from the interphase between the PBS top layer and Ficoll plus bottom layer, washed with PBS and subjected to cell proliferation assays. […]

In assay [7] the test system is OVA. The assay can be described thus: Anti-OVA IgG response in immunized mice (ELISA titer). Format: in vivo, Balb/c mice. On the procedure:
Balb/c mice (4-6 wks of age) were primed intra peritoneal (i.p.) route with 0.1 ml of protein antigens, OVA albumin (Sigma) or GSK […] (GlaxoSmithKline, Mississauga, Ontario, Canada), in the presence and absence of fusion protein or cDNA harboring plasmid. To determine the antigen-specific IgG titer in the serum of the individual mouse, ELISA were performed using 0.1 μg/ml antigen-coated assay plates (Maxisorp, Nunc 44-2404-21) following the standard procedure.
Balb/c mice were immunized i.p. with 0.2 μg of OVA and 5 μg of CD40L-FasL-IgFc (indicated as Primed). On Day 14, blood samples were harvested and subsequently mice were injected with 0.2 μg of OVA (indicated as Boosted). Sera from day 14 and day 21 were analysed by ELISA for the IgG activity against OVA. […] Squares indicate mice immunized with OVA alone. Circles indicate mice immunized with both OVA and CD40L-FasL-IgFc. Numbers in squares and circles indicate individual mouse. The […] activity of pre-immune serum from each mouse was equally low at less than 50 in titer.

The subject of assay [8] is Influenza hemaglutinin-specific T cell response. More on the design: species or system Balb/c mice. To be noted: mouse, in vivo, ip.
Assay [9] concerns PBL-T cells and PBL-non-T cells. The assay can be described thus: Proliferation of PBL-T cells versus PBL-non-T cells. Format: cell-based, human. To be noted: 0.1 μM, 3 days. The protocol: as §3
PBL-T cells and PBL-non-T cells were stimulated with CD40L-FasL-IgFc (0.1 μM) for three days prior to proliferation assay. […] The data represent the three experiments with similar results. […]
PBMCs derived from normal healthy human adults were separated from whole blood using Ficoll-Paque Plus. […] The purity of human PBL-T cells was greater than 97% as determined by CD3 staining and flow cytometry. […] CD4^+ and CD8^+ T cells were purified to greater than 90% positive for CD4 and CD8, respectively as determined by flow cytometry studies.

Assay [10] deals with T-bet. The assay can be described thus: T-bet RNA in CD4+ T cells by RT-PCR. It is filed as cell-based, human. The conditions noted are these: 5 days. The protocol: as §2
CD4^+ T cells were stimulated by B7-2-FasL-IgFc (0.1 μM) for 5 days before total RNA was harvested and tested for increased mRNA expression of T-bet (for Th1 differentiation) and GATA-3 (for Th2 differentiation) by RT-PCR. Each sample was electrophoresed on agarose gels and stained with ethidium bromide (EtBr) to detect amplified fragments: 206 bp for T-bet and 131 bp for GATA3. The data represent the three experiments with similar results.

The test system of assay [11] is Total T cells, CD4+ T cells and CD8+ T cells. Nature of the assay: Proliferation of purified human T cells (total, CD4+, CD8+). Format: cell-based. The protocol: as §3
PBMCs derived from normal healthy human adults were separated from whole blood using Ficoll-Paque Plus. Peripheral blood lymphocyte (PBL)-T cells, PBL-B cells, CD4^+ T cells, CD8^+ T cells were purified by negative selection using RosetteSep (StemCell Tec. Vancouver, BC, Canada), while non-T cells were purified by negative selection using pan-T magnet beads (M-450, Dynal, Lake Success, N.Y., USA). The purity of human PBL-T cells was greater than 97% as determined by CD3 staining and flow cytometry. […] CD4^+ and CD8^+ T cells were purified to greater than 90% positive for CD4 and CD8, respectively as determined by flow cytometry studies.
Total T cells, CD4^+ T cells and CD8^+ T cells were stimulated with either B7-2-FasL-IgFc or control fusion proteins. CD4^+ T cells and CD8^+ T cells were stimulated with various fusion proteins. After 72 hours in culture, cell proliferation was assessed. Data indicates the average and standard deviation of quadruplicate samples. The data represent the three experiments with similar results.

The test system of assay [12] is IL-2. The assay can be described thus: IL-2 production of T cells (ELISA). Format: cell-based, human. To be noted: 1 μg/ml, 3 days. On the procedure: as §1
T cells were stimulated by B7-2-FasL-IgFc (1 μg/ml) or phytohemagglutinin (5 μg/ml) for 3 days. The concentration of IL-2 in culture supernatants was measured by ELISA assays. The lower limit of detection was 30 pg/ml in IL-2 assay. The data represent the three experiments with similar results.

The test system of assay [13] is human Fas-apoptosis-sensitive Jurkat T cell line or human peripheral blood T lymphocytes. Nature of the assay: Cell death in Jurkat T cell line or peripheral blood T lymphocytes. It is filed as cell-based. An excerpt:
According to understanding, the strong cell activation by simultaneous stimulation of a co-stimulation receptor and another death receptor is not a predictable outcome. […] A possible explanation for the strong activation in CD28^+/Fas^+ T cells is that B7-2 and FasL must be located in the close proximity to each other, as is the case when linked together in the B7-2-FasL-IgFc fusion protein.

For “CD40L-FasL-IgFc: fusion protein of human CD40L extracellular domain, human FasL extracellular domain and human IgG1 Fc (SEQ ID NO: 13)”, in assay [1], the “increase of B cell (CD19+) fraction” value was found to be 30% and the “increase of monocyte (CD14+) fraction” value is listed as 15%. The “anti-TNP IgG secretion” value in assay [2] was “significantly increased”. Also, the “cell death of B lymphoma cells” value in [3] is on record as “did not undergo cell death”. In assay [4], the “expression of PRDI-BF1 RNA” value was “increased expression”. Also, in assay [5], the “HA-specific IgG, secondary response following boost” value is given as “far greater” and the “HA-specific IgG, primary response” value was “significantly increased the antibody response”. Further, the “cell activation / mitogenic response (proliferation) of PBMC” value in assay [6] (3 days stimulation, 3H-thymidine, active even at 0.1-0.01 μg/ml) was “significant cell activation; also recorded: greatly exceeded the mitogenic response induced by the co-stimulation with CD40L-IgFc and FasL-IgFc”. The “mitogenic activity after adsorption with Polymixin B” value in [6] (fusion protein pre-absorbed with Polymixin B-coated beads, 3 days) is “did not attenuate the mitogenic activity”. Besides, the “OVA-specific IgG, primary response” value in assay [7] (0.2 μg OVA + 5 μg fusion protein i.p., day 14 sera) is reported as “high titers”. The “OVA-specific IgG after boost” value in [7] (boost 0.2 μg OVA on day 14, day 21 sera) is “increased markedly”. Also, in [8], the “HA-specific CD8+ T cell response” value is “only detectable in spleen cells immunized with CD40L-FasL-IgFc” and the “HA-specific response by total T cells” value is “lowered the HA-specific response by total T cells”. The “cell subset specificity of activation (T versus non-T/B cells)” value in [9] is “did not activate T lymphocytes but resulted in a strong mitogenic activity against B cells; also recorded: specific for the non-T cell subsets”.
Take “B7-2-FasL-IgFc: fusion protein of human B7-2 extracellular domain, FasL extracellular domain and IgG1 Fc (SEQ ID NO: 17)”: in assay [10] (CD4+ T cells, 0.1 μM), the “T-bet transcription factor RNA” value is “significant increase”. Besides, in [10] (from T-bet/GATA3 RT-PCR), the “differentiation of CD4+ T cells in vitro” value is on record as “skewing towards Th1 subsets”. For the same substance, in [11] (72 hours culture), the “T cell proliferation (mitogenic response)” value is “strong activation of proliferation; also recorded: strong T cell-specific mitogenic response; also recorded: proliferation of both CD4^+ and CD8^+ T cells increased”; the “magnitude of T cell proliferation compared with phytohemagglutinin (PHA)” value is “comparable to that induced by the well-known T cell mitogen PHA; also recorded: comparable to phytohemagglutinin-induced T cell mitogenesis”. In addition, the “dose required by CD8+ T cells to achieve similar levels of proliferation to CD4+ T cells” value in [11] (CD8+ versus CD4+ T cells) is listed as more than 20 fold. In assay [12], the “IL-2 secretion by T cells” value was “secretion of IL-2”. Moreover, in assay [5], the “humoral and cellular immune responses in vivo” value was “severe repression of humoral and cellular immune responses”; the “HA-specific IgG, secondary response following boost” value was “far lower”; the “HA-specific IgG, primary response” value is recorded as “repressed the antibody response”. Besides, in [8], the “HA-specific CD8+ T cell response” value is “undetectable” and the “HA-specific response by total T cells” value is “suppressed the HA-specific response by total T cells”. The “induction of cell death” value in assay [13] is given as “did not induce cell death”.
